Measured values published in patent US20220023289A1, “Application Of Pyrroloquinoline Quinone In Preparation Of Medicament Used For Preventing And Treating Acute Altitude Sickness And Acute Altitude Hypoxia Injury” (priority 2018, published 2022).

Experiments:
[1] = system: rats exposed to acute altitude hypoxia; assay: Serum homocysteine in rats exposed to acute altitude hypoxia; format: in vivo, Wistar rat; conditions: for Serum homocysteine: 0.11 g/kg
Description: (§1) Select healthy Wistar rats weight 160-200 g, half female and half male. After feeding for 3 days, these Wistar rats are randomly divided into ten groups according to their body weight, each group has 16±2 rats. The groups are divided as follows: five groups of the hypoxic exposure drug test group, respectively, are given 0.91 mg/kg, 1.83 mg/kg, 3.66 mg/kg, 7.31 mg/kg, and 14.63 mg/kg drugs. […] After continuous intragastric administration for 7 days, the animals in the hypoxic exposure group are simultaneously put into the decompression and hypoxia compound experimental chamber, the hatch is closed, and the pressure is reduced at a speed of 10 m/s. After being raised to an altitude of 6000 m and maintained for 8 hours, the speed in 10 m/s drops is reduced to normal altitude, open the hatch, and then take out the animal, collect blood samples (after standing for 1 hour, the supernatant is centrifuged and stored at −20° C.), and liver tissue samples. Detection indicator includes body weight, serum blood glucose, ATP, lactic acid, endothelin, nitric oxide, SOD, CO, MDA related to oxidative stress, and total protein, albumin, triglycerides, total cholesterol, high-density lipoprotein cholesterol, low-density lipoprotein cholesterol, glutamic pyruvic transaminase, total bilirubin, gluamic oxalacetic transaminase, serum urea nitrogen, creatinine, uric acid, lactate dehydrogenase, creatine kinase, α-hydroxybutyrate dehydrogenase; liver ATP, hepatic glycogen. Except that the formal oxygen control animal group is not put into the decompression and hypoxia compound experimental chamber, other experimental conditions and detection indicators are the same.
(§2) Measure blood glucose, total protein, albumin, triglycerides, total cholesterol, high-density lipoprotein cholesterol, low-density lipoprotein cholesterol, glutamic-pyruvic transaminase, total bilirubin, glutamic oxalacetic transaminase, serum urea nitrogen, creatinine, uric acid, lactate dehydrogenase, creatine kinase, α-hydroxybutyrate dehydrogenase, blood homocysteine by using an automatic blood biochemical analyzer.

[2] = system: rats exposed to acute altitude hypoxia; assay: Renal function in rats exposed to acute altitude hypoxia; format: in vivo, Wistar rat; conditions: for Creatinine / Uric acid: 0.11 g/kg
Description: as §1, §2

[3] = Rat body weight before the acute decompression hypoxia experiment (intragastric 7 days)
Description: as §1

[4] = system: rats exposed to acute altitude hypoxia; assay: Myocardial enzyme activity in rats exposed to acute altitude hypoxia; format: in vivo, Wistar rat; conditions: for Creatine Kinase / Lactate dehydrogenase / α-hydroxybutyrate dehydrogenase: 0.11 g/kg
Description: as §1, §2

[5] = system: rats exposed to acute altitude hypoxia; assay: Protein metabolism in rats exposed to acute altitude hypoxia; format: in vivo, Wistar rat; conditions: for albumin (second column): 0.11 g/kg
Description: as §1, §2

[6] = system: rats exposed to acute altitude hypoxia; assay: Endothelial function (serum endothelin-1, nitric oxide) in rats exposed to acute altitude hypoxia; format: in vivo, Wistar rat; conditions: for Endothelin-1 / Nitric oxide: 0.11 g/kg
Description: This method uses nitrate reductase specificity reduce NO^3− to NO^2−, and then determine the level of its concentration by displaying shades of color. Operate according to the kit instructions, measure the absorbance of each tube at a wavelength of 550 nm, and then calculate the content of nitric oxide of the sample to be tested according to the formula. To the coated microwells pre-coated with rat endothelin (endothelin-1) capture antibody, add in sequence specimens, standards, and HRP-labeled detection antibody, and then incubate and wash thoroughly. Use a substrate TMB for color development. TMB is converted into blue under the catalysis of peroxidase and converted into the final yellow color under the action of acid. The color intensity is positively correlated with the rat endothelin (endothelin-1) in the sample.

[7] = system: rats with acute altitude hypoxia injury; assay: Oxidative stress indexes of rats with acute altitude hypoxia injury; format: in vivo, Wistar rat
Description: Operate according to the instructions, and then measure the absorbance value of each tube, and afterwards calculate the content of malondialdehyde in the sample to be tested according to the formula. […] The latter oxidizes hydroxylamine to form nitrite. It appears purplish red under the action of chromogenic agent. Measure its absorbance by a visible light spectrophotometer. When the measured sample contains superoxide dismutase, it has specific inhibitory effect on superoxide anion free radicals, make formed nitrite reduced. […] The superoxide dismutase activity in the tested sample can be calculated by formula calculation. […] The latter can form a stable complex with phenanthrophins and measure its antioxidant capacity by colorimetry. Operate according to the kit instructions, measure the absorbance of each tube at a wavelength of 520 nm, and then calculate the total antioxidant capacity in the sample to be tested according to the formula.

[8] = female rats, hypoxia, 0.11 g/kg
[9] = female rats, normoxia, 0.11 g/kg

## CC(=O)Nc1nnc(S(N)(=O)=O)s1 [Acetazolamide, reference compound]
[1]; female rats, hypoxia
  Serum homocysteine: 9.54 ± 0.98 µmol/L
[1]; female rats, normoxia
  effect on serum homocysteine: no significant effects
  Serum homocysteine: 9.33 ± 1.16 µmol/L
[1]; hypoxia exposed female rats
  effect on serum homocysteine: no significant effects
[1]; hypoxia exposed male rats
  effect on serum homocysteine: have been not found
[1]; male rats, hypoxia
  Serum homocysteine: 11.13 ± 1.67 µmol/L
[2]; female rats, hypoxia
  Creatinine: 18.78 ± 1.96 µmol/L
  Uric acid: 77.80 ± 17.31 µmol/L
[2]; female rats, normoxia
  effect on serum urea nitrogen and creatinine values: increasing
  effect on serum uric acid level: reducing
  Creatinine: 19.67 ± 0.32 µmol/L
  Uric acid: 82.00 ± 15.10 µmol/L
[2]; hypoxia exposed female rats
  effect on serum urea nitrogen and creatinine value: increasing
  effect on serum uric acid level: decreasing
[2]; hypoxia exposed male rats
  effect on serum creatinine: no significant effect
  effect on serum urea nitrogen content: increase
  effect on serum uric acid level: can reduce
[2]; male rats, hypoxia
  Creatinine: 25.01 ± 2.48 µmol/L
  Uric acid: 81.86 ± 11.05 µmol/L
[3]; 0.11 g/kg
  rat body weight Female 1 day: 153.4 ± 6.1 g
  rat body weight Female 7 days: 163.3 ± 6.76 g
  rat body weight Male 1 day: 172.4 ± 6.8 g
  rat body weight Male 7 days: 189.1 ± 11.8 g
[3]; female rats, 7 days
  effect on body weight: no significant effects
[3]; male rats, 7 days
  effect on weight: decreased
[4]; female rats, hypoxia
  Creatine Kinase: 503.40 ± 137.62 U/L
  Lactate dehydrogenase: 534.00 ± 179.23 U/L
  α-hydroxybutyrate dehydrogenase: 230.20 ± 75.49 U/L
[4]; female rats, normoxia
  effect on serum lactic dehydrogenase, creatine kinase, α-hydroxybutyrate dehydrogenase activity: no significant effects
  Creatine Kinase: 697.67 ± 222.15 U/L
  Lactate dehydrogenase: 998.67 ± 285.56 U/L
  α-hydroxybutyrate dehydrogenase: 430.33 ± 134.10 U/L
[4]; hypoxia exposed female rats
  effect on serum lactic dehydrogenase, creatine kinase, α-hydroxybutyrate dehydrogenase activity: no significant effects
[4]; hypoxia exposed male rats
  effect on serum lactate dehydrogenase, creatine kinase, α-hydroxybutyrate dehydrogenase: has not been found
[4]; male rats, hypoxia
  Creatine Kinase: 352.43 ± 138.11 U/L
  Lactate dehydrogenase: 303.86 ± 174.67 U/L
  α-hydroxybutyrate dehydrogenase: 126.29 ± 67.51 U/L
[5]; female rats
  effect on serum total protein content: has been not found
[5]; female rats, hypoxia
  albumin (second column): 29.18 ± 1.68 g/L
[5]; female rats, normoxia
  effect on serum albumin content: can slightly increase
  albumin (second column): 32.13 ± 0.45 g/L
[5]; male rats exposed to hypoxia
  effect on serum total protein content: is not found
[5]; male rats, hypoxia
  albumin (second column): 27.87 ± 1.140 g/L
[6]; female rats after acute hypoxia exposure
  effect on serum endothelin-1 and nitric oxide: no significant effects
[6]; female rats, hypoxia
  Endothelin-1: 55.66 ± 6.39 ng/mL
  Nitric oxide: 4.96 ± 3.13 µmol/L
[6]; female rats, normoxia
  effect on nitric oxide content: no significant effects
  effect on serum endothelin-1 content: can reduce
  Endothelin-1: 36.18 ± 2.31 ng/mL
  Nitric oxide: 4.08 ± 0.88 µmol/L
[6]; hypoxia exposed male rats
  effect on serum endothelin-1 and nitric oxide: slight reduction
[6]; male rats, hypoxia
  Endothelin-1: 42.41 ± 0.7 ng/mL
  Nitric oxide: 3.52 ± 1.25 µmol/L
[7]; [8]
  Endo Dialdehyde: 13.09 ± 2.13 nmol/L
  Superoxide dismutase: 57.11 ± 3.40 U/ml
  Total antioxidants: 10.36 ± 0.81 U/ml
[7]; [9]
  Endo Dialdehyde: 14.12 ± 0.32 nmol/L
  Superoxide dismutase: 50.88 ± 3.34 U/ml
  Total antioxidants: 10.31 ± 0.20 U/ml
[7]; hypoxia exposed female rats
  effect on serum superoxide dismutase activity: increasing
  effect on serum total antioxidants and malondialdehyde: no significant effects
[7]; hypoxia exposed male rats
  effect on serum superoxide dismutase activity: increasing
[7]; male rats
  effect on serum total antioxidants and malondialdehyde: no significant effects
[7]; male rats, hypoxia, 0.11 g/kg
  Malonaldehyde: 3.24 ± 1.52 nmol/L
  Superoxide dismutase: 182.51 ± 4.46 U/ml
